The source of these data is DBAASP.

Holding throughout (assay): ≥ marks a high value that may be exact or a test limit, other limits are often not marked, values filed in µg/mL are converted to µM
Assay [1] has as its system Staphylococcus aureus ATCC 25923.
Assay [2] deals with Escherichia coli ATCC 25922.
Assay [3] concerns Staphylococcus aureus ATCC 29213.
Assay [4] relates to Staphylococcus aureus.
Assay [5] relates to Pseudomonas aeruginosa ATCC 27853.
In assay [6] the test system is Escherichia coli.

≈ marks a conversion by molar mass, not a printed value. Where “and” joins values, the source holds several entries; their conditions need not be identical. Equal entries are not always repeated. A value given as a limit tells only on which side of the number the result lay.

In the case of `CC(C)C[C@H](NC(=O)CNC(=O)[C@H](CCCCN)NC(=O)CNC(=O)[C@H](C)NC(=O)[C@H](C)N)C(=O)N[C@H](C(=O)N[C@@H](CO)C(=O)N[C@@H](CC(N)=O)C(=O)N[C@@H](CC(C)C)C(=O)N[C@@H](CC(C)C)C(=O)N[C@@H](CCC(=O)O)C(=O)N[C@@H](CCCCN)C(N)=O)C(C)C` [AAGKGLVSNLLEK], the figures for the MIC in assay [1] and in assay [2] were 49 µM (≈ 63.6 µg/mL) and 24.6 µM (≈ 31.9 µg/mL), respectively.
Turning to `CC[C@H](C)[C@H](NC(=O)[C@@H](N)Cc1ccccc1)C(=O)N[C@@H](CCCN=C(N)N)C(=O)N[C@@H](CO)C(=O)N[C@@H](CC(C)C)C(=O)N[C@@H](Cc1ccccc1)C(=O)N[C@@H](Cc1ccccc1)C(=O)N[C@@H](Cc1ccccc1)C(N)=O` [FIRSLFFF], the MIC in assay [1] and in assay [2] was > 100 µM each time.
Regarding `CC[C@H](C)[C@H](NC(=O)[C@H](CCCN=C(N)N)NC(=O)[C@H](CCC(N)=O)NC(=O)[C@@H](NC(=O)CNC(=O)[C@H](CCCN=C(N)N)NC(=O)[C@H](CCCCN)NC(=O)[C@@H](N)Cc1ccccc1)C(C)C)C(=O)N[C@@H](CCCCN)C(=O)N[C@@H](CC(=O)O)C(=O)N[C@@H](Cc1ccccc1)C(=O)N[C@@H](CC(C)C)C(=O)N[C@@H](CCCN=C(N)N)C(=O)O` [FKRGVQRIKDFLR], the figures for the MIC in assay [2] and in assay [3] were 10 µM (≈ 16.6 µg/mL) and > 40 µM, respectively.
`CC(C)C[C@H](NC(=O)[C@H](CC(C)C)NC(=O)[C@H](CCCCN)NC(=O)[C@H](CCCCN)NC(=O)[C@H](CC(C)C)NC(=O)[C@H](Cc1ccccc1)NC(=O)[C@H](CCCCN)NC(=O)[C@H](CC(C)C)NC(=O)[C@@H](N)Cc1ccccc1)C(N)=O` [FLKFLKKLL]: in assay [2], the MIC was 13.9 µM and 27.8 µM.
In assay [1], `CC[C@H](C)[C@H](NC(=O)[C@H](CCCCN)NC(=O)[C@H](CC(C)C)NC(=O)[C@@H](N)Cc1ccccc1)C(=O)N[C@@H](CC(C)C)C(=O)N[C@@H](CCCCN)C(=O)N[C@@H](CCCCN)C(=O)N[C@@H](CC(C)C)C(=O)N[C@@H](CC(C)C)C(N)=O` [FLKILKKLL] gave a minimal inhibitory concentration (MIC) of 14.3 µM (≈ 16 µg/mL).
Regarding `CC[C@H](C)[C@H](NC(=O)[C@@H]1CCCN1C(=O)[C@H](CC(C)C)NC(=O)[C@@H](N)Cc1ccccc1)C(=O)N[C@@H](C)C(=O)N[C@@H](CO)C(=O)N[C@@H](CC(C)C)C(=O)N[C@@H](CC(C)C)C(=O)NCC(=O)N[C@@H](CCCCN)C(=O)N[C@@H](Cc1ccc(O)cc1)C(=O)N[C@@H](CC(C)C)C(=O)O` [FLPIASLLGKYL], in assay [4], the minimum inhibitory concentration (MIC) is > 200 µM.
Regarding `CC(C)[C@H](NC(=O)[C@H](CCCN=C(N)N)NC(=O)[C@@H](N)Cc1ccccc1)C(=O)N[C@H](C(=O)N[C@@H](Cc1c[nH]c2ccccc12)C(=O)N[C@@H](CCCN=C(N)N)C(=O)N[C@H](C(=O)N[C@@H](CCCCN)C(=O)N[C@@H](Cc1c[nH]c2ccccc12)C(=O)N[C@@H](Cc1c[nH]c2ccccc12)C(=O)N[C@@H](CCCCN)C(=O)NCC(N)=O)[C@@H](C)O)[C@@H](C)O` [FRVTWRTKWWKG], the MIC in assay [1] turned out to be 3 µM (≈ 4.95 µg/mL); in assay [2], 6 µM (≈ 9.9 µg/mL).
Take `CC[C@H](C)[C@H](NC(=O)CN)C(=O)NCC(=O)N[C@@H](C)C(=O)N[C@H](C(=O)N[C@@H](CC(C)C)C(=O)N[C@@H](CCCCN)C(=O)N[C@H](C(=O)N[C@@H](CC(C)C)C(=O)N[C@@H](C)C(=O)N[C@@H](CC(C)C)C(=O)N[C@H](C(=O)N[C@@H](CO)C(=O)N[C@@H](Cc1c[nH]c2ccccc12)C(=O)N[C@H](C(=O)N[C@@H](CCCCN)C(=O)N[C@@H](CCCN=C(N)N)C(=O)N[C@@H](CCCCN)C(=O)N[C@@H](CCCN=C(N)N)C(N)=O)[C@@H](C)CC)[C@@H](C)CC)C(C)C)C(C)C` [GIGAVLKVLALISWIKRKR]: the values for the MIC in assay [1], in assay [5] and in assay [6] were 5.6 µM (≈ 11.9 µg/mL), 11.2 µM (≈ 23.9 µg/mL) and 11.2 µM (≈ 23.9 µg/mL), respectively.
Regarding `CC[C@H](C)[C@H](NC(=O)[C@H](CCCN=C(N)N)NC(=O)[C@@H](N)CCCCN)C(=O)N[C@@H](CCCCN)C(=O)N[C@H](C(=O)N[C@@H](CC(C)C)C(=O)N[C@@H](CC(C)C)C(N)=O)[C@@H](C)O` [KRIKTLL], the minimal inhibitory concentration (MIC) in assay [1] and in assay [2] was > 70 µM in each case.
As to `CC(C)[C@H](NC(=O)[C@H](Cc1c[nH]c2ccccc12)NC(=O)[C@H](C)NC(=O)[C@@H](N)CCCN=C(N)N)C(=O)N[C@@H](C)C(=O)N[C@@H](Cc1c[nH]c2ccccc12)C(=O)N[C@@H](CCCN=C(N)N)C(=O)N[C@@H](CC(N)=O)C(=O)N[C@@H](CCCN=C(N)N)C(N)=O` [RAWVAWRNR], the MIC in assay [2] came to 412 µM (≈ 500 µg/mL); in assay [3], 206 µM (≈ 250 µg/mL).
For the compound `CSCC[C@H](NC(=O)[C@H](CCCCN)NC(=O)[C@H](CCCCN)NC(=O)[C@H](CCCCN)NC(=O)[C@@H](N)CCCN=C(N)N)C(=O)N[C@@H](CCCCN)C(=O)N[C@@H](CCCCN)C(=O)N[C@@H](C)C(=O)N[C@@H](CC(C)C)C(=O)N[C@@H](CCC(N)=O)C(=O)N[C@@H](Cc1ccc(O)cc1)C(N)=O` [RKKKMKKALQY], the MIC in assay [5] and in assay [2] was > 100 µM throughout.
`CC[C@H](C)[C@H](NC(=O)[C@H](CC(C)C)NC(=O)[C@@H](NC(=O)[C@H](CC(C)C)NC(=O)[C@H](CO)NC(=O)[C@H](CCCCN)NC(=O)[C@@H](NC(=O)[C@H](CC(C)C)NC(=O)[C@H](CCCCN)NC(=O)[C@H](CC(C)C)NC(=O)[C@H](CO)NC(=O)[C@H](CCCN=C(N)N)NC(=O)[C@H](CCCCN)NC(=O)[C@@H](NC(=O)[C@H](Cc1ccccc1)NC(=O)[C@@H](N)CO)[C@@H](C)CC)[C@@H](C)CC)C(C)C)C(=O)N[C@@H](CCCCN)C(=O)O` [SFIKRSLKLIKSLVLIK] had an MIC in assay [4] of 4 µM (≈ 7.95 µg/mL).
`CC(C)C[C@H](NC(=O)[C@H](Cc1ccccc1)NC(=O)[C@@H]1CCCN1C(=O)[C@H](Cc1c[nH]c2ccccc12)NC(=O)[C@H](Cc1c[nH]c2ccccc12)NC(=O)[C@H](Cc1c[nH]c2ccccc12)NC(=O)[C@@H]1CCCN1C(=O)[C@H](Cc1ccccc1)NC(=O)[C@H](CCCCN)NC(=O)[C@H](CCCCN)NC(=O)[C@@H](N)C(C)C)C(=O)N[C@@H](CCCCN)C(=O)N[C@@H](CCCCN)C(N)=O` [VKKFPWWWPFLKK]: the figures for the MIC in assay [4], in assay [2] and in assay [6] were 5.59 µM (≈ 9.99 µg/mL), 16 µM (≈ 28.6 µg/mL) and 11.2 µM (≈ 20 µg/mL), respectively.
As for `CC(C)C[C@H](NC(=O)[C@H](CC(C)C)NC(=O)[C@H](CC(N)=O)NC(=O)[C@H](CCCCN)NC(=O)[C@H](CC(C)C)NC(=O)[C@H](CC(N)=O)NC(=O)[C@@H](N)C(C)C)C(=O)N[C@@H](CCCN=C(N)N)C(=O)O` [VNLKNLLR], the MIC in assay [5] came to 32 µM (≈ 31 µg/mL).
Regarding `CC(C)C[C@H](NC(=O)[C@H](Cc1ccccc1)NC(=O)[C@@H]1CCCN1C(=O)[C@H](Cc1ccc(O)cc1)NC(=O)[C@H](Cc1c[nH]c2ccccc12)NC(=O)[C@H](Cc1c[nH]c2ccccc12)NC(=O)[C@@H]1CCCN1C(=O)[C@H](Cc1ccccc1)NC(=O)[C@H](CCCN=C(N)N)NC(=O)[C@H](CCCN=C(N)N)NC(=O)[C@@H](N)C(C)C)C(=O)N[C@@H](CCCN=C(N)N)C(=O)N[C@@H](CCCN=C(N)N)C(N)=O` [VRRFPWWYPFLRR], the MIC in assay [2] came out at 4 µM (≈ 7.51 µg/mL).
Take `NC(=O)[C@H](Cc1c[nH]c2ccccc12)NC(=O)[C@H](CCCN=C(N)N)NC(=O)[C@H](Cc1ccc(O)cc1)NC(=O)[C@H](CCCN=C(N)N)NC(=O)[C@@H](N)Cc1c[nH]c2ccccc12` [WRYRW]: the MIC in assay [1] is 57.7 µM (≈ 49.9 µg/mL); in assay [2] it was 115 µM (≈ 99.9 µg/mL).

As a reminder, the MIC is the smallest concentration in the dilution series that meets the test's criterion for growth inhibition. Higher therefore signals a less susceptible organism.
